# Experimental data as given in patent US20250000874A1, “BACTERIAL METABOLITES AND THEIR USE IN REDUCING INFLAMMATION” (LOYOLA UNIVERSITY OF CHICAGO, priority 2023, published 2025).
# Entries after “also recorded” stand apart in the source; their conditions may differ.
# Experiments:
# [1] = tested on: Raw 264.7 Cells; assay: NC on TNFα release in Raw 264.7 cells in response to TLR agonists; format: cell-based, mouse; conditions: 50 μM NC 18 hours
# Description: (§1) FIG. 27A and FIG. 27B. Metabolite NC on TNFα release in response to LPS in human and murine macrophages in vitro. Macrophages were plated at a uniform density of 0.2×10^6 cells/mL in 24 well plates. These cells (FIG. 27A) were allowed to adhere, or, in the case of THP-1 cells FIG. 27B), differentiate using PMA. They were then treated for 18 hours with 50 μM of metabolite NC before being stimulated with 0.1 ug of LPS-EK. Supernatant was collected between 4-6 hours after addition of LPS and debris was removed via centrifugation at 1250 rpm for 5 minutes. TNFα was quantified in the supernatant using sandwich ELISA with standards of known concentrations.
# (§2) FIG. 28A and FIG. 28B. Metabolite NC on TNFα release in macrophages in response to various TLR agonists. Raw 264.7 cells (FIG. 28A) and THP-1 FIG. 28B) cells were plated at a uniform density of 0.2×10^6 cells per mL and stimulated with various TLR agonists: Pam3CSK4, Poly I:C, LPS, Fla, FSL-1, imiquimod (ImiQ), and ODN-2006. NC reduced TNFα release in response to TLR3 (p<0.0001 via student's t-test for both Raw 264.7 cells and THP-1 cells) and TLR4 agonists in both cell lines.
# (§3) To investigate the effects of compound NC, macrophages were stimulated with LPS, an endotoxin associated with gram-negative bacteria. Human and murine macrophage-like cells (THP-1 cells and Raw 264.7 cells, respectively) were plated in 24 well plates at a uniform density of 0.2×10^6 cells/mL. Following 18 hours of pretreatment with 50 μM metabolite NC, they were stimulated with 10 μg/mL of LPS. After 4-6 hours, supernatant was collected and TNFα was quantified using sandwich ELISA. NC reduces TNFα release from both THP-1 and Raw 264.7 macrophage-like cells in response to TLR4 agonist LPS in vitro.
# (§4) Metabolite NC reduces inflammation in response to TLR4 agonist LPS. To further investigate the specificity of NC's action in TLR signaling, Raw 264.7 (FIG. 28A) and THP-1 (FIG. 28B) cells were once again plated at a uniform density of 0.2×10^6 cells/mL, treated with 50 μM metabolite NC for 18 hours, and stimulated with agonists for TLR1/2, TLR3, TLR4, TLR5, TLR6/2, TLR7 and TLR9. After 4-6 hours, supernatant was collected and TNFα was quantified via sandwich ELISA.
# [2] = tested on: THP-1 cells; assay: NC on TNFα release in THP-1 cells in response to TLR agonists; format: cell-based, human; conditions: 50 μM NC 18 hours
# Description: as §1, §2, §3, §4
# [3] = tested on: Human corneal epithelial cells; assay: NC on IL-6 release in HCECs; format: cell-based; conditions: 50 μM NC 18 hours, 6-8 hours
# Description: FIG. 30. NC on IL-6 Release in HCECs. Human corneal epithelial cells were plated at a uniform density of 0.2×10^6 cells/mL in 24 well plates. These cells were allowed to adhere for 6-8 hours. They were then treated 18 hours with 50tM of metabolite NC before being stimulated with 1 tg/mL of PA-Flagellin or 50 tg/mL Poly I:C. Supernatant was collected between 6-8 hours after addition of TLR agonist and centrifuged at 1250 rpms for 5 minutes to remove any debris. IL-6 in the supernatant was then quantified using a sandwich ELISA for human IL-6 with a standard of known IL-6 concentration.
# Human corneal epithelial cells (HCECs) are a cell type used for models of ocular inflammation. To determine the specificity of HCEC TLR signaling, HCECs were stimulated with various TLR agonists. In this experimental model, HCECs only release IL-6 in response to TLR3 and TLR5 agonists (Poly I:C and Fla, respectively) in vitro (FIG. 29). Therefore, only Poly I:C and Fla were used for HCEC stimulation in subsequent experiments.
# To determine if NC can mitigate TLR-related inflammation, HCECs were plated at a uniform density, incubated with 50 μM metabolite NC for 18 hours, and stimulated with flagellin or Poly I:C. After 6-8 hours, supernatant was collected and IL-6 was quantified. […] FIG. 30.
# [4] = tested on: mouse peritonitis; assay: LPS-induced mouse peritonitis model, peritoneal neutrophils by flow cytometry (Ly6G); format: in vivo; conditions: JE i.p. two consecutive days, LPS i.p. day 3, 4 hours, vs PBS
# Description: FIG. 4A-4B. Bacterial Supernatant <10 kD fraction inhibits mouse peritonitis in vivo. 6-week old B6 mice were i.p. injected with <10 kD fraction from LF, TS medium, or PBS (500 μL/dose) at day 0 and day 1. At day 2, mice were given LPS (10 μg/mouse) or PBS via i.p. […] (FIG. 4A) The recruited neutrophils were quantified by flow cytometry using the neutrophil markers Ly6G and data were analyzed by FlowJo Software. (FIG. 4B) Neutrophil numbers are shown as mean±s.d., **p<0.01, n=3 per group.
# FIG. 9A-9C. FACS representation of mouse peritonitis model. Histograms were made from FACS gating of cells collected from the peritoneal cavity. (FIG. 9A) Mice were pre-treated for two consecutive days with compound JE and then received LPS. (FIG. 9B) Mice received only LPS. (FIG. 9C) Another group received PBS injected for two consecutive days to serve as a negative control. […]
# Commensal bacteria are non-invading bacteria that habit the host gastrointestinal tract without causing harm. […] We then measured the ability of the <10 kDa fraction to cross intestinal epithelium with the tight junctions without disrupting the integrity. […] To determine if the <10 kD fraction suppresses LPS-induced inflammatory responses in vivo, we intraperitoneally injected the <10 kDa fraction into C57/Bl6 mice followed by LPS and then analyzed peritoneal numbers of neutrophils by flow cytometry. […]
# [5] = TLR1/2, TLR5, TLR6/2, TLR7, TLR9 agonists
Structure (SMILES),"TNFα release in response to TLR3 agonist Poly I:C ([1]; 4-6 hours, ELISA)","TNFα release in response to TLR4 agonist LPS ([1]; LPS, 4-6 hours, ELISA)",TNFα release in the absence of LPS stimulation ([1]; unstimulated),"TNFα release in response to other TLR agonists [1, 5]","TNFα release in response to TLR3 agonist Poly I:C ([2]; 4-6 hours, ELISA)","TNFα release in response to TLR4 agonist LPS ([2]; LPS, 4-6 hours, ELISA)",TNFα release in the absence of LPS stimulation ([2]; unstimulated),"TNFα release in response to other TLR agonists [2, 5]",release of IL-6 in response to Poly I:C ([3]; Poly I:C),release of IL-6 in response to Fla ([3]; flagellin),peritoneal neutrophil recruitment [4]
"CCCCCCCCCCCCCCCC(=O)N[C@@H](C(=O)O)[C@H](C)O [NC, N-Palmitoyl-D-Threonine]",reduced,reduced; also recorded: significantly less,did not increase; also recorded: does not increase,did not significantly reduce,reduced,reduced; also recorded: significantly less,did not increase; also recorded: does not increase,did not significantly reduce,does not significantly reduce; also recorded: modestly reduced,does not significantly reduce,
"CC(=O)O[C@@H]1CC[C@H]2[C@H]3CC[C@H]4CC(F)(F)CC[C@]4(C)[C@H]3CC[C@]12C [JE, 3,3-Difluoro-5-alpha-androstan-17-beta-yl acetate]",,,,,,,,,,,reduced
